Results from patent US11382347B2, “Natural cooling formulations” (WM. WRIGLEY JR. COMPANY, priority 2015, dated 2022).

Assay: Sensory panel screening of natural coolants versus menthol in sugar solution (Example 1)
Type: in vivo, human
Conditions: 100 ppm in 5% sugar solution, 10 mL held 10 s, panel N=6; for Cooling Relative to 100 ppm Menthol: 9-point scale, menthol fixed as 5.0
Description: 100 ppm of naturally sourced menthyl lactate, menthyl succinate, and isopulegol were screened in 5% sugar solution for cooling and bitterness properties relative to 100 ppm menthol in 5% sucrose solution.
10 mL of each sample was orally evaluated by a panel (N=6) for 10 seconds, then expectorated. Cooling strength, flavor strength, and bitterness or off-taste was evaluated on a 9-point scale in comparison to 100 ppm menthol evaluated as a control, with 0 being the lowest and 9 being the highest measure on the scale. Subjects evaluated the coolant attributes at T0 (immediately after expectorating), 1, 2, 5 and 10 minute time points post expectoration.
Prior to the test, each subject calibrated their cooling and bitterness scale by performing the same evaluation on 10 mL of 100 ppm of L-menthol (prepared the same way as the natural coolants). The menthol solution was held in the mouth for 10 seconds as a calibration sample and the cooling strength and bitterness were fixed as 5.0 at the initial T0 time point.
Panelists were asked to rate the cooling and bitterness intensity of the compounds in solution, relative to the solution of 100 ppm of menthol, when tested in comparative screenings. The ratings are summarized in Table 1, showing the cooling and bitterness of the coolants compared to menthol.

In the case of `CC1CCC(C(C)C)C(O)C1` (centres unmarked) [Menthol (Control), menthol, reference compound], the “Bitterness Relative to 100 ppm Menthol” value was 1.0 and the “Cooling Relative to 100 ppm Menthol” value was 1.0.
In the case of `C=C(C)C1CCC(C)CC1O` (centres unmarked) [Natural Isopulegol, isopulegol], the “Bitterness Relative to 100 ppm Menthol” value was 0.8 and the “Cooling Relative to 100 ppm Menthol” value was 0.7.
In the case of `CC1CCC(C(C)C)C(OC(=O)C(C)O)C1` (centres unmarked) [Natural Menthyl Lactate, menthyl lactate], the “Bitterness Relative to 100 ppm Menthol” value was 1.7 and the “Cooling Relative to 100 ppm Menthol” value was 1.1.
In the case of `CC1CCC(C(C)C)C(OC(=O)CCC(=O)O)C1` (centres unmarked) [Natural Menthyl Succinate, mono-menthyl succinate], the “Bitterness Relative to 100 ppm Menthol” value was 0.8 and the “Cooling Relative to 100 ppm Menthol” value was 0.6.
